Results on 3 compounds are retold here after ChEMBL document CHEMBL3425418 (Bioorg Med Chem Lett, 2015).

For series [1], the species on record is Homo sapiens. As to the kind of experiment: Toxicity in metastatic renal cell carcinoma patient assessed as dysphonia. It counts as organism-based.
Series [2] is filed under the species Homo sapiens. As to the kind of experiment: Toxicity in metastatic renal cell carcinoma patient assessed as hypertension. Type of series: organism-based.
Another series addresses T1, Ephrin type-B receptor 2 (Homo sapiens, UniProt P29323).
T1 sequence (P29323 whole entry): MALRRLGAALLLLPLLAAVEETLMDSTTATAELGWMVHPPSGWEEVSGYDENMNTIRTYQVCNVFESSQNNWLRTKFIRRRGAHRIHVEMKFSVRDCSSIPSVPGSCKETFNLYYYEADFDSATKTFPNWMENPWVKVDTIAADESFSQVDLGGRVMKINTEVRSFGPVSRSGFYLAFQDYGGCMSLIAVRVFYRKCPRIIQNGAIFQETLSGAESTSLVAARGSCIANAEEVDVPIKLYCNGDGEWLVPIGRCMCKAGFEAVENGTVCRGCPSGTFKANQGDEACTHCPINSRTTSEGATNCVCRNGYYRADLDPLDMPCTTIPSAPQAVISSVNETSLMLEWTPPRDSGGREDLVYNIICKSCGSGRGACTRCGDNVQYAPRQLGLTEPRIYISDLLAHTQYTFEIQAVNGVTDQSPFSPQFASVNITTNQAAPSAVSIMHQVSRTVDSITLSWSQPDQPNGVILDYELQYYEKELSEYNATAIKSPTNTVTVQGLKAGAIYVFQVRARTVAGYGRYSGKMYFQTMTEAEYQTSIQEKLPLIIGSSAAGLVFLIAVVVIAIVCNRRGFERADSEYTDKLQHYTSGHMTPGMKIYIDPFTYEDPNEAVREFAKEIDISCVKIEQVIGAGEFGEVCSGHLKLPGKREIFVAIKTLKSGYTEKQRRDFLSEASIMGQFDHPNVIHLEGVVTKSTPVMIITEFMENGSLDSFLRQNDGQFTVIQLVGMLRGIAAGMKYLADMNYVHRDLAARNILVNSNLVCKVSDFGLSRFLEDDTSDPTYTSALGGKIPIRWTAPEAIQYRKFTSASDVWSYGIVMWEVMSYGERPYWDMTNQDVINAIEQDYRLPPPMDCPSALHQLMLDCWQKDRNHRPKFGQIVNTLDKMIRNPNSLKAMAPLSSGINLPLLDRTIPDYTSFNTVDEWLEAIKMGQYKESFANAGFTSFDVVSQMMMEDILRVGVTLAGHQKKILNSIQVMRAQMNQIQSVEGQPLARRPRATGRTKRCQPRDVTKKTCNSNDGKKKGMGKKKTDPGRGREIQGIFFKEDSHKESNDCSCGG
As to the kind of experiment: Inhibition of recombinant EphB2 (unknown origin) by cell-free assay.

A short description of series [3]: AUC (0 to infinity) in Sprague-Dawley rat at 2.5 mg/kg, po. Type of series: ADME, organism-based. The arrangement: time infinity, dose 2.5 mg/kg, route oral. To be noted: plasma.
The nature of series [4]: Mean residence time in Sprague-Dawley rat at 2.5 mg/kg, po. It counts as ADME, organism-based. Details: dose 2.5 mg/kg, route oral. To be noted: in vivo.
Series [5] is described as follows: AUC (0 to time) in Sprague-Dawley rat at 2.5 mg/kg, po. Type of series: ADME, organism-based. Details: dose 2.5 mg/kg, route oral. The note with it: plasma.
Series [6] can be described thus: Cmax in Sprague-Dawley rat at 2.5 mg/kg, po. It counts as ADME, organism-based. Details: dose 2.5 mg/kg, route oral. The note with it: in vivo.
Series [7] is described as follows: Tmax in Sprague-Dawley rat at 2.5 mg/kg, po. Type of series: ADME, organism-based. The arrangement: dose 2.5 mg/kg, route oral. The note with it: in vivo.
Series [8] in a line: Half life in Sprague-Dawley rat at 2.5 mg/kg, po. It counts as ADME, organism-based. Details: dose 2.5 mg/kg, route oral. To be noted: in vivo.

`COc1cc2nccc(Oc3ccc(NC(=O)Nc4cc(C)on4)c(Cl)c3)c2cc1OC` [TIVOZANIB]: the Activity is recorded as 21% in the series listed under Homo sapiens [1] and 44% in the series filed under Homo sapiens [2]. For the same compound, the IC50 – broadly, the concentration that inhibits the measured activity by half – at Ephrin type-B receptor 2 turned out to be 17.5 nM. In addition, the AUC(0-inf) (commonly the area under the concentration-time curve extrapolated to infinity) in [3] stood at 49100 ng·h/mL. The MRT (in general, a mean duration of stay, worked out from the concentration-time curve) in series [4] worked out at 13.4 h. Further, the AUC (commonly the area under the concentration-time curve, a measure of exposure) in series [5] is 47500 ng·h/mL. Also, in series [6], the concentration peaked (Cmax) at 3060 ng/mL. Further, the Tmax (in general, the time at which the peak concentration occurs) in [7] is 4.8 h. Moreover, the half-life (commonly the time in which the quantity being followed falls by half) in series [8] is 9.35 h.
In the case of `[2H]C([2H])([2H])Oc1cc2nccc(Oc3ccc(NC(=O)Nc4cc(C)on4)c(Cl)c3)c2cc1OC([2H])([2H])[2H]`, on Ephrin type-B receptor 2, the IC50 was determined as 26.8 nM. The same compound returned an AUC(0-inf) in series [3] of 73900 ng·h/mL. Moreover, the MRT in series [4] is 15.8 h. This compound also had an AUC in [5] of 69700 ng·h/mL. The Cmax (commonly the highest concentration seen after dosing) in [6] was found to be 3980 ng/mL. The Tmax in series [7] worked out at 5 h. In series [8], the half-life is 11.1 h.
On to `CNC(=O)c1cc(Oc2ccc(NC(=O)Nc3ccc(Cl)c(C(F)(F)F)c3)cc2)ccn1` [SORAFENIB], for which the Activity in the series filed under Homo sapiens [1] was 5%; in the series filed under Homo sapiens [2] it was 34%.
